Laboratory results: PMC8508980, “Design, Synthesis and Anticancer Profile of New 4-(1H-benzo[d]imidazol-1-yl)pyrimidin-2-amine-Linked Sulfonamide Derivatives with V600EBRAF Inhibitory Effect” (International Journal of Molecular Sciences, 2021)
Where two headings read alike, the source gives them in different places.

Key:
BRAF (wild-type) = biological target: T1, BRAF (wild-type) (Homo sapiens, UniProt P15056); assay: Reaction Biology kinase HotSpot enzyme assay; assay type: biochemical; conditions: 1 µM ATP; mean ± S.D. of two separate experiments
T1 construct: purchased Reaction Biology Corp. (Kinase HotSpot service)
Procedure: The enzymatic assays were performed in Reaction Biology Corp. using the standard protocol at 1 µM ATP and threefold dilution factor (detailed procedure is found in the Supplementary Information page 52 s).
(§1) Reaction Biology Corp. Kinase HotSpotTM service http://www.reactionbiology.com was used for screening of compounds IC50 Proﬁler Express for IC50 measurement. Assay protocol: In a ﬁnal reaction volume of 25 μL, kinase (5–10 mU) is incubated with 25 mM Tris pH 7.5, 0.02 mM EGTA, 0.66 mg/mL myelin basic protein, 10 mM magnesium acetate and [γ33P-ATP] (speciﬁc activity approx. 500 cpm/pmol, concentration as required). The reaction is initiated by the addition of the Mg-ATP mix. After incubation for 40 min at room temperature, the reaction is stopped by the addition of 5 μL of a 3% phosphoric acid solution. 10 μL of the reaction is then spotted onto a P30 ﬁltermat, and washed three times for 5 min in 75 mM phosphoric acid and once in methanol prior to drying and scintillation counting.

CRAF = CRAF (Homo sapiens, UniProt P04049); assay: Reaction Biology kinase HotSpot enzyme assay; assay type: biochemical; conditions: 1 µM ATP, mean ± S.D. of two separate experiments
Procedure: as §1

A375 cells = assay: Antiproliferative MTT assay; assay type: cell-based; conditions: Homo sapiens, A-375, 48 h, mean ± S.D. of two experiments
Procedure: (§2) The effect of final target compounds over A375 and SK-MEL-5 was performed using reported procedures (detailed procedure is located in the Supplementary Information page 51s). […]
(§3) Evaluation of the Antiproliferative Activity Against A375 and SK-MEL-5
(§4) A375 and SK-MEL-5 cells were purchased from American Type Culture Collection (ATCC, Ro ckv ille, MD, USA) and maintained in Dulbecco’s modified eagle medium (DMEM, Welgene, Daegu, Republic of Korea) supplemented with 10% fetal bovine serum (FBS, Welgene, Daegu, Republic of Korea) and 1% penicillin/streptomycin (Welgene, Daegu, Republic of Korea) in a hu midified atmo sphere with 5% CO2 at 37 °C. Both cells were taken from culture substrate with 0.05% trypsin-0.02% EDTA and plated at a density of 5 × 10^3 cells/well in 96 well plates and then incubated at 37 °C fo r 24 h in a hu midified atmo sphere with 5% CO2 prior to treatment with various concentrations (3-fold serial dilution, 12 points) of the tested compounds. The cells were incubated for 48 h after treatment with the test compounds. The cell viability was assessed by the conventional 3-(4,5-dimethylthiazol-2-yl)-2,5-diphenyltetrazolium bromide (MTT) reduction assay. MTT assays were carried out with CellTiter 96® (Promega) according to the manufacturer’s instructions. The absorbance at 590 nm was recorded using EnVision 2103 (Perkin Elmer; Bo ston , MA, USA). The IC50 values were calculated using GraphPad Prism 4.0

SK-MEL-5 cells = assay: Antiproliferative MTT assay; assay type: cell-based; conditions: Homo sapiens, 48 h, mean ± S.D. of two experiments
Procedure: as §2, §3, §4

HCT-15 = assay: NCI 60 cell line screen; assay type: cell-based, human; conditions: for activity at 10 µM: Homo sapiens, HCT-15, Colon Cancer, read-out: Percent growth; for percent inhibition: HCT-15, NCI-60 heat map analysis
Procedure: (§5) Anticancer profiling over a panel of 60 cancer cell lines was carried out at the National Cancer Institute (NCI), Bethesda, Maryland, USA, https://dtp.cancer.gov/discovery_development/nci-60/methodology.htm (Last visit 22 September 2021), using the standard procedure (detailed procedure is located in the Supplementary Information page 50 s).
(§6) NCI standard procedure for 60 cell lines assay
(§7) The human tumor cell lines of the cancer screening panel are grown in RPMI 1640 mediu m containing 5% fetal bovine serum and 2 mM L-glutamine. For a typical screening experiment, cells are inoculated into 96 well microtiter plates in 100 μL at plating densities ranging from 5,000 to 40,000 cells/well depending on the doubling time of individual cell lines. After cell inoculation, the microtiter plates are incubated at 37° C, 5 % CO2, 95 % air and 100 % relative humidity for 24 h prior to addition of experimental drugs.
(§8) After 24 h, two plates of each cell line are fixed in situ with TCA, to represent a measurement of the cell population for each cell line at the time of drug addition (Tz). Experimental drugs are solubilized in dimethyl sulfoxide at 400-fold the desired final maximum test concentration (10 µM) and stored frozen prior to use. At the time of drug addition, an aliquot of frozen concentrate is thawed and diluted to twice the desired final maximum test concentration with co mp lete medium containing 50 μg/ml gentamicin. Additional four, 10-fold or ½ log serial dilutions are made to provide a total of five drug concentrations plus control. Aliquots of 100 μl of these different drug dilutions are added to the appropriate microtiter wells already containing 100 μl of medium, resulting in the required final drug concentrations.
(§9) Following drug addition, the plates are incubated for an additional 48 h at 37°C, 5 % CO2, 95 % air, and 100 % relative humidity. For adherent cells, the assay is terminated by the addition of cold TCA. Cells are fixed in situ by the gentle addition of 50 μl of cold 50 % (w/v) TCA (final concentration, 10 % TCA) and incubated for 60 minutes at 4°C. The supernatant is discarded, and the plates are washed five times with tap water and air dried. Sulforhodamine B (SRB) solution (100 μl) at 0.4 % (w/v) in 1 % acetic acid is added to each well, and plates are incubated for 10 minutes at room temperature. After staining, unbound dye is removed by washing five times with 1 % acetic acid and the plates are air dried. Bound stain is subsequently solubilized with 10 mM trizma base, and the absorbance is read on an automated plate reader at a wavelength of 515 nm. For suspension cells, the methodology is the same except that the assay is terminated by fixing settled cells at the bottom of the wells by g ently adding 50 μl of 80 % TCA (final concentration, 16 % TCA). Using the seven absorbance measurements [time zero, (Tz), control growth, (C), and test growth in the presence of drug at the five concentration levels (Ti)], the percentage growth is calculated at each of the drug concentrations levels. Percentage growth inhibition is calculated as:
(§10) [(Ti-Tz)/(C-Tz)] x 100 for concentrations for which Ti>/=Tz
(§11) [(Ti-Tz)/Tz] x 100 for concentrations for which Ti<Tz.
(§12) Three dose response parameters are calculated for each experimental agent. Growth inhibition of […]
(§13) resulting in a 50% reduction in the net protein increase (as measured by SRB staining) in control cells during the drug incubation. The drug concentration resulting in total growth inhibition […]
(§14) (TGI) is calculated from Ti = Tz.

MOLT-4 = assay: NCI 60 cell line screen; assay type: cell-based, human; conditions: for activity at 10 µM: Homo sapiens, MOLT-4, Leukemia, read-out: Percent growth; for percent inhibition: MOLT-4, NCI-60 heat map analysis
Procedure: as §5, §6, §7, §8, §9, §10, §11, §12, §13, §14

NCI-H23 = assay: NCI 60 cell line screen; assay type: cell-based, human; conditions: for activity at 10 µM: Homo sapiens, NCI-H23, Non-Small Cell Lung Cancer, read-out: Percent growth
Procedure: as §5, §6, §7, §8, §9, §10, §11, §12, §13, §14

UO-31 = assay: NCI 60 cell line screen; assay type: cell-based, human; conditions: for activity at 10 µM: Homo sapiens, UO-31, Renal Cancer, read-out: Percent growth; for percent inhibition: UO-31, NCI-60 heat map analysis
Procedure: as §5, §6, §7, §8, §9, §10, §11, §12, §13, §14

T1 sequence (P15056 whole entry): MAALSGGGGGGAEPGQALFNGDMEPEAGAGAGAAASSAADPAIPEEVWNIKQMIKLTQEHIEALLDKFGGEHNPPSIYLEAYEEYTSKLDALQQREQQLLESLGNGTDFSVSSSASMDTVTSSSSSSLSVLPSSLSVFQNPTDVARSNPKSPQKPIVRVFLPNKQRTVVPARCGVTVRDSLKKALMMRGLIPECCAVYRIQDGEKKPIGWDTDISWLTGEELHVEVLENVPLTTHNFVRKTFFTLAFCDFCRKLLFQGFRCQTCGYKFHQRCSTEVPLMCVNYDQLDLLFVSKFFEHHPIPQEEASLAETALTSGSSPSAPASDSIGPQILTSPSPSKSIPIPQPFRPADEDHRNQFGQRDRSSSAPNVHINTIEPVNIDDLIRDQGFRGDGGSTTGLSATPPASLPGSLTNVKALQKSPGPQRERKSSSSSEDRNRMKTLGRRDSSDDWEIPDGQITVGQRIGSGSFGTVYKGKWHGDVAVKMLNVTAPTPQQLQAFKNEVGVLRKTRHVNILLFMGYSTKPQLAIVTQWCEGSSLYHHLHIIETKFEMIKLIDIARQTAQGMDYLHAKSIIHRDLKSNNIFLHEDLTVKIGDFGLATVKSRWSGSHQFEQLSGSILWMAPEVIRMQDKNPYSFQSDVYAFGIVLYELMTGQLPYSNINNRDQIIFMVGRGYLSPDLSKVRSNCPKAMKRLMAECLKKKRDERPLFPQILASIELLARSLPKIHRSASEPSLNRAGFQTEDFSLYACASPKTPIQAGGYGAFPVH
CRAF, sequence (P04049 whole entry): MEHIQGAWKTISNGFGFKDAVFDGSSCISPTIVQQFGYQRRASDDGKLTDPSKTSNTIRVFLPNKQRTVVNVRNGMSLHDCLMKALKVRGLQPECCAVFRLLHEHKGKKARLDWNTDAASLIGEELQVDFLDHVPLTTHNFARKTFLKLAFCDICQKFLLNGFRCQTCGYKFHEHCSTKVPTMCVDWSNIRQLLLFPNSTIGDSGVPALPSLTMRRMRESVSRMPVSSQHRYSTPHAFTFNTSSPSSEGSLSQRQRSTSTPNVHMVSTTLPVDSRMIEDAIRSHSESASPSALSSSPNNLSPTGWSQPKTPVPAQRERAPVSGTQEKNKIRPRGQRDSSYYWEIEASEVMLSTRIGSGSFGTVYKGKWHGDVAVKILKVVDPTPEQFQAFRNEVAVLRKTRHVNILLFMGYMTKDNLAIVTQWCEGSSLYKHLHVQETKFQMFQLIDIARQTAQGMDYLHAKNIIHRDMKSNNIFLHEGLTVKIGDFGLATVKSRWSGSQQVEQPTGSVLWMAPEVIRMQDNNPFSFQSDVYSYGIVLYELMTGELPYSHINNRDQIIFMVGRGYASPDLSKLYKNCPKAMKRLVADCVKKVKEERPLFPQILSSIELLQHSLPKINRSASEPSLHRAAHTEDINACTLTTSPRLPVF

Structure (SMILES)	IC50 (BRAF (wild-type)) [nM]	IC50 (CRAF; read-out: IC50 CRAF) [nM]	IC50 (A375 cells) [nM]	IC50 (SK-MEL-5 cells) [nM]	activity at 10 µM (HCT-15) [%]	activity at 10 µM (MOLT-4) [%]	activity at 10 µM (NCI-H23) [%]	activity at 10 µM (UO-31) [%]	percent inhibition (HCT-15)	percent inhibition (UO-31) [%]	percent inhibition (MOLT-4)	percent inhibition (NCI-H23; NCI-H23, NCI-60 heat map analysis)	IC50 (CRAF; IC50 CRAF) [nM]
O=S(=O)(NCCCNc1nccc(-n2cnc3ccccc32)n1)c1ccc(Br)cc1 [12k, N-(3-((4-(1H-benzo [d]imidazol-1-yl)pyrimidin-2-yl)amino)propyl)-4-bromo benzenesulfonamide]	1530 ± 110	990 ± 85	12000 ± 470	13500 ± 390	83.2	64.9	92.8	74.3					
COc1ccc(S(=O)(=O)NCCCNc2nccc(-n3cnc4ccccc43)n2)cc1 [12m, N-(3-((4-(1H-benzo [d]imidazol-1-yl)pyrimidin-2-yl)amino)propyl)-4-methoxy benzenesulfonamide]	1460 ± 86	960 ± 79	13100 ± 270	14600 ± 710	92.3	77	91.9	67.2					
O=S(=O)(NCCNc1nccc(-n2cnc3ccccc32)n1)c1ccc(Br)cc1 [12d, N-(2-((4-(1H-benzo [d]imidazol-1-yl)pyrimidin-2-yl)amino)ethyl)-4-bromobenzenesulfonamide]	1790 ± 150	2100 ± 180	11800 ± 710	19700 ± 510	95.7	95.9	97.3	79.8					
COc1ccc(S(=O)(=O)NCCNc2nccc(-n3cnc4ccccc43)n2)cc1 [12f, N-(2-((4-(1H-benzo [d]imidazol-1-yl)pyrimidin-2-yl)amino)ethyl)-4-methoxy benzenesulfonamide]	1980 ± 120	1670 ± 210	12600 ± 440	18700 ± 690	93.7	93.3	96.9	77.3					
O=S(=O)(NCCCNc1nccc(-n2cnc3ccccc32)n1)c1ccc(Cl)cc1 [12j, N-(3-((4-(1H-benzo [d]imidazol-1-yl)pyrimidin-2-yl)amino)propyl)-4-chloro benzenesulfonamide]	1130 ± 99	1020 ± 77	10400 ± 240	12900 ± 720	93.1	82.3	97.1	87.2					
O=S(=O)(NCCNc1nccc(-n2cnc3ccccc32)n1)c1ccc(F)cc1 [12b, N-(2-((4-(1H-benzo [d]imidazol-1-yl)pyrimidin-2-yl)amino)ethyl)-4-fluorobenzenesulfonamide]	1510 ± 220	1340 ± 190	10500 ± 220	15600 ± 370	100	90.5	95.8	72.6					
O=S(=O)(NCCNc1nccc(-n2cnc3ccccc32)n1)c1ccccc1 [12a, N-(2-((4-(1H-benzo [d]imidazol-1-yl)pyrimidin-2-yl)amino)ethyl)benzenesulfonamide]	3250 ± 450	2980 ± 210	12800 ± 410	20400 ± 860	97	93.7	96.4	77					
O=S(=O)(NCCCNc1nccc(-n2cnc3ccccc32)n1)c1ccc(C(F)(F)F)cc1 [12l, N-(3-((4-(1H-benzo [d]imidazol-1-yl)pyrimidin-2-yl)amino)propyl)-4-(trifluoromethyl) benzenesulfonamide]	940 ± 65	840 ± 76	1850 ± 110	2020 ± 90	53.8	38.4	82.5	54.4	more than 40%	46			
Cc1ccc(S(=O)(=O)NCCNc2nccc(-n3cnc4ccccc43)n2)cc1 [12g, N-(2-((4-(1H-benzo [d]imidazol-1-yl)pyrimidin-2-yl)amino)ethyl)-4-methyl benzenesulfonamide]	1530 ± 260	1480 ± 99	7220 ± 230	8250 ± 120	80.2	55.3	74.6	52		48	around 45%		
O=S(=O)(NCCNc1nccc(-n2cnc3ccccc32)n1)c1ccc(C(F)(F)F)cc1 [12e, N-(2-((4-(1H-benzo [d]imidazol-1-yl)pyrimidin-2-yl)amino)ethyl)-4-(trifluoromethyl)benzenesulfonamide]	1250 ± 95	1140 ± 88	2890 ± 140	6540 ± 180	60.7	45.2	54.5	39.9	around 40%		55%	around 40%	
O=S(=O)(NCCCNc1nccc(-n2cnc3ccccc32)n1)c1cccc2ccccc12 [12n, N-(3-((4-(1H-benzo [d]imidazol-1-yl)pyrimidin-2-yl)amino)propyl)naphthalene-1-sulfonamide]	3540 ± 175		16900 ± 810	17800 ± 620	81.8	67	91.3	60.7			around 30%		1780 ± 156
